According to patent publication US20050080139A1, “Naaladase inhibitors for treating huntington's disease” (priority 2001, published 2005):

Columns and labels:
[1] = test system: Transgenic HD mice of the N171-82Q strain; assay: Total distance traveled (overall locomotion) in HD mice; assay type: in vivo; settings: 30 mg/kg from 10 weeks of age, vs vehicle
Protocol: Transgenic HD mice of the […]-[…] strain and non-transgenic littermates were treated with NAALADase inhibitor Compound B (30 mg/kg) or a vehicle from 10 weeks of age. The mice were placed on a rotating rod (“rotarod”). The length of time at which the mouse fell off the rotarod was recorded as a measure of motor coordination. […] The treatment with Compound B had no effect on the rotarod performance of normal non-HD mice. The total distance traveled by the mice was also recorded as a measure of overall locomotion.

[2] = test system: Transgenic HD mice of the N171-82Q strain; assay: Rotarod behavioral testing in transgenic mouse model of Huntington's disease; assay type: in vivo; settings: transgenic HD mice N171-82Q, 30 mg/kg from 10 weeks of age, vs vehicle
Protocol: Transgenic HD mice of the […]-[…] strain and non-transgenic littermates were treated with NAALADase inhibitor Compound B (30 mg/kg) or a vehicle from 10 weeks of age. The mice were placed on a rotating rod (“rotarod”). The length of time at which the mouse fell off the rotarod was recorded as a measure of motor coordination. […] The treatment with Compound B had no effect on the rotarod performance of normal non-HD mice.

[3] = test system: transgenic HD mice (N171-82Q); assay: Survival of transgenic HD mice; assay type: in vivo
Protocol: The effects of Compound B and vehicle on the survival of transgenic HD mice (N171-82Q) were evaluated. Thirteen mice (six male and seven female) were assigned to the Compound B treatment group, and fourteen mice (six male and eight female) were assigned to the vehicle treatment group. Treatment was continued until all the mice died.

NAALADase = NAALADase (Homo sapiens, UniProt Q04609); settings: NAAG as substrate of NAALADase; cited from earlier work
NAALADase, sequence (Q04609 whole entry): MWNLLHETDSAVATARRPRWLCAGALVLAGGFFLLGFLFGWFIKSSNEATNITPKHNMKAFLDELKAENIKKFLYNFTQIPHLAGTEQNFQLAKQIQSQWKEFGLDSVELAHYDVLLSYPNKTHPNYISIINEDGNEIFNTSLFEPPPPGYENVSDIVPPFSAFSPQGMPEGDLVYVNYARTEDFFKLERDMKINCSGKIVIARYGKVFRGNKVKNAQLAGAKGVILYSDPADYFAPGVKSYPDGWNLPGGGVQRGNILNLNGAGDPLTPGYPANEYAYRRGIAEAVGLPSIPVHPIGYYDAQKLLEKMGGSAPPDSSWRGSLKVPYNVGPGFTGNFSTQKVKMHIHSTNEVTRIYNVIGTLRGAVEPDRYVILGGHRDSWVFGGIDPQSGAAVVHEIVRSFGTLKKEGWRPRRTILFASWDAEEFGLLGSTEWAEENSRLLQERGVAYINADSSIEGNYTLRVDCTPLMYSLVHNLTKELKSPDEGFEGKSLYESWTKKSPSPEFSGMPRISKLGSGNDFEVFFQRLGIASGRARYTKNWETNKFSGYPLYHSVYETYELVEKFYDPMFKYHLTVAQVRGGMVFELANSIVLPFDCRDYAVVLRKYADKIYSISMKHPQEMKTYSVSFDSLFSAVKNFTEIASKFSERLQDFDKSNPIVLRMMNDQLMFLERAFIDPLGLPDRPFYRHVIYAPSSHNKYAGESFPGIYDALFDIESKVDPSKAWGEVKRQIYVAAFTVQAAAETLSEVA

Compound | total distance traveled (overall locomotion) [1] | rotarod performance (length of time on the rotarod, motor coordination) [2] | survival time vs vehicle ([3]; female transgenic HD mice, p-value 0.03) | survival time vs vehicle ([3]; transgenic HD mice N171-82Q, both sexes, difference in median survival time) | median survival time ([3]; transgenic HD mice N171-82Q, both sexes, vehicle 158.5 days, p-value=0.07) [days] | Km (NAALADase) [µM]
O=C(O)CCC(CCCS)C(=O)O (stereo not drawn) [Compound B, 2-(3-sulfanylpropyl)-pentanedioic acid] | no apparent effect on overall locomotion | stayed longer on the rotarod | significantly prolonged survival time | not statistically significant | 184 | –
N-acetyl-aspartyl-glutamate [NAAG] | – | – | – | – | – | 0.54
